Data reported in US20180243190A1, “ACTIVATORS OF NRF2-DEPENDENT PHOTOPROTECTION AND RELATED USES THEREOF” (THE ARIZONA BOARD OF REGENTS ON BEHALF OF THE UNIVERSITY OF …, priority 2015, published 2018).

Assays:
[1] = system: NRF2, KEAP1, GCLM, AKR1C1 mRNA; experiment: Quantitative real-time RT-PCR in HaCaT cells; format: cell-based, human; conditions: 40 μM, 4 h and 16 h
Excerpt: Total RNA was extracted from HaCaT cells and mouse skin tissues using TRIzol (Invitrogen). Equal amounts of mRNA were used to generate cDNA using the M-MLV Reverse Transcriptase synthesis kit according to the manufacturer's instructions (Promega). RT-PCR and primer sequences of NRF2, KEAP1, GCLM, AKR1C1 and GAPDH were described previously to evaluate mRNA expression using the LightCycler 480 system (Roche). Quantification of cDNA amount for mouse Nrf2, Keap1, Gclm, and Akr1c1 in each skin tissue sample was performed using the KAPA SYBR FAST qPCR Kit (Kapa Biosystems).

[2] = system: NRF2 transcriptional activity; experiment: Dual luciferase NQO1-ARE reporter assay in HaCaT keratinocytes; format: cell-based, human; conditions: 10-40 μM, 16 h
Description: Transfection of cDNA was performed using Lipofectamine 3000 (Invitrogen) according to the manufacturer's instructions. Activation of NRF2 transcriptional activity was performed as previously published. Briefly, HaCaT cells were cotransfected with expression vectors for either KEAP1 wild type (KEAP1-WT) or KEAP1 with a mutation that generates a protein that contains a serine residue instead of a cysteine (KEAP1-C151S), along with NQO1-ARE firefly luciferase and Renilla luciferase reporters. At 24 h post-transfection, cells were left untreated or treated with SF (5 μM), As (5 μM), or bixin (40 μM) for 16 h. The cells were then lysed for analysis of the reporter gene activity using the Promega dual-luciferase reporter gene assay system.

[3] = parameters: species or system SKH-1 mice; conditions: mouse, in vivo, 200 mg/kg
Excerpt: To explore the potential systemic photoprotective activity of bixin in a murine skin sunburn model, the feasibility of upregulating cutaneous NRF2 activity by systemic administration was first examined. It has been reported earlier that efficient cutaneous accumulation of dietary carotenoids requires prolonged nutritional supplementation over weeks and that pharmacokinetic parameters of cutaneous delivery of dietary carotinoids differ between humans and mice. Therefore, in order to circumvent the more complex pharmacokinetics associated with dietary supplementation, an intraperitoneal (i.p.) route for bixin systemic administration followed by examination of cutaneous NRF2 status was chosen. After i.p. injection of bixin (200 mg/kg) performed in Nrf2^+/+ and Nrf2^−/− mice, plasma was collected at 0, 1, 2, 4, 8, 16, 24, 48 and 72 h after injection followed by HPLC-photodiode array detection (FIG. 4A-C). […] Next, efficacy of various bixin treatment regimens (differing with regard to total dose and time after injection) for maximum activation of the NRF2 pathway in murine skin was determined (FIG. 4D).
Electrospray mass spectrometry of bixin [dissolved in tetrahydrofuran and diluted tenfold in acetonitrile/NH4OH (0.1 N); ESI-MS (negative ion mode) m/z 393.21 (M−1)^−] was performed using a Bruker Apex FT/ICR mass spectrometer. […]

NRF2 = experiment: Cell-based NRF2 ubiquitination assay; parameters: species or system human; conditions: HaCaT, bixin 40 μM or SF 5 μM with MG132 10 μM, 4 h
Description: In order to test if bixin-based NRF2 activation occurs through inhibition of KEAP1-mediated ubiquitination, a cell-based ubiquitination assay was performed in HaCaT cells cotransfected with expression vectors for NRF2 and HA-tagged ubiquitin (HA-Ub) (FIG. 3F). To this end, cells were either exposed to bixin (40 μM) or sulforaphane (SF; 5 μM, positive control) or left untreated, combined with proteasome inhibition (MG132; 10 μM, 4 h).
Experiments were performed according to previously published procedures. Cells were harvested in sample buffer (50 mM Tris-HCl [pH 6.8], 2% sodium dodecyl sulfate (SDS), 10% glycerol, 100 mM dithiothreitol (DTT), and 0.1% bromophenol blue), boiled and sonicated. Total cell lysates were resolved by SDS-PAGE and subjected to immunoblot analyses with the indicated antibodies. For the ubiquitination assay, cells were cotransfected with expression vectors for NRF2 and HA-tagged ubiquitin (HA-Ub). Cells were left untreated or treated with either 5 μM sulforaphane (SF) or 40 μM bixin along with 10 μM MG132 for 4 h. Cells were harvested in buffer containing 2% SDS, 150 mM NaCl, 10 mM Tris-HCl (pH 8.0), and 1 mM DTT and boiled immediately. […] The relative intensity of the bands was quantified using the ChemiDoc CRS gel documentation system and Quantity One software (BioRad).

## COC(=O)/C=C/C(C)=C\C=C\C(C)=C\C=C\C=C(C)\C=C\C=C(C)\C=C\C(=O)O [bixin]
[1]
  NRF2 or KEAP1 mRNA levels: without affecting
  NRF2 target genes at the mRNA level (GCLM, AKR1C1): pronounced upregulation
[2]
  NRF2 transcriptional activity: dose-dependent induction
[3]
  AUC, Nrf2+/+ versus Nrf2−/−: did not differ significantly
[3]; ip
  peak plasma concentration (Cmax): up to 11.3 μg/ml
NRF2
  NRF2-ubiquitination versus untreated control: dramatic reduction
